Test results from patent publication US9101577B2, “Analgesic pharmaceutical composition for oral administration” (Warszawski Uniwersytet Medyczny, priority 2011, dated 2015).

Tested on: Male Wistar rats
Assay: Acute activity after single p.o. administration, paw withdrawal test (Randall and Selitto), % of analgesia
Assay type: in vivo, rat
Conditions: for analgesic activity on separate administration (codeine study) / analgesic activity / pain perception threshold on separate administration (dihydrocodeine study) / analgesic activity / pain threshold when administered alone (morphine study) / analgesic activity on separate administration (oxycodone study) / analgesic activity on separate administration (tramadol study): single separate administration p.o., magnesium salts 15 mg magnesium ions/kg; for analgesic activity on separate administration (codeine study): codeine 175 mg/kg; for analgesic activity / pain perception threshold on separate administration (dihydrocodeine study): dihydrocodeine 50 mg/kg; for analgesic activity / pain threshold when administered alone (morphine study): morphine 15 mg/kg; for analgesic activity on separate administration (oxycodone study): oxycodone 5 mg/kg; for analgesic activity on separate administration (tramadol study): tramadol 125 mg/kg
Experimental: Male Wistar rats (250-300 g) were housed in a room maintained at a temperature of 20±2° C. under 12 h-12 h light-dark cycles. The animals had free access to food and water. Experimental groups consisted of six rats.
Drugs • Morphine at a dose of 15 mg/kg, codeine at a dose of 175 mg/kg, tramadol at a dose of 125 mg/kg and oxycodone at a dose of 5 mg/kg were dissolved in distilled water; • Dihydrocodeine at a dose of 50 mg/kg was suspended in 1% solution of methylcellulose; • Magnesium lactate (in micronized form)—at a dose of 15 mg magnesium ions/kg (150 mg of magnesium lactate/kg) was suspended in 0.5% solution of methylcellulose; • Magnesium lactate in normal (non-micronized) form—at doses of 15 or 30 mg magnesium ions/kg (150 or 300 mg of magnesium lactate/kg, respectively) was suspended in 0.5% solution of methylcellulose; • Magnesium citrate (in micronized and normal form)—at a dose of 15 mg magnesium ions/kg (112 mg of magnesium citrate/kg) was dissolved in distilled water; • Magnesium hydroaspartate (in micronized and normal form)—at a dose of 15 mg magnesium ions/kg (216 mg of magnesium hydroaspartate/kg) was suspended in 0.5% solution of methylcellulose; • Magnesium chloride (in micronized and normal form)—at a dose of 15 mg magnesium ions/kg (59.5 mg of magnesium chloride/kg) was dissolved in distilled water; • Control animals received a 0.5% solution of methylcellulose, a 1% solution of methylcellulose and distilled water, respectively, according to the same time schedule.
Magnesium salts and investigated opioids were administered concomitantly.
The micronized form of magnesium salts used in experiments contains particles of magnesium compounds of size D90<50 μm.
The normal magnesium salts form used in experiments contains particles of sizes commonly available in the market.
Acute activity of investigated drugs was measured in short time periods (from 5 to 300 min) after single administration.
All drugs were administered per os (p.o.); literally—orally. However, in practice, drugs were administered intragastric via a gastric tube.
Changes in pain thresholds were determined using a mechanical stimuli—the modification of the classic paw withdrawal test described by Randall and Selitto [1957]. In order to produce mechanical stimulation, progressively increasing pressure was applied to the dorsal surface of the rat's paw using an analgesymeter. The instrument used increased the force on the paw at a rate of 32 grams per second. The nociceptive threshold was defined as force in grams, at which the rat attempted to withdraw its right hindpaw and values of pressure were recorded at this very moment. At least two observers controlled the response.
Nociceptive thresholds (average of two trials) measured for each animal before single administration of investigated drugs (measurement of acute activity) or in day 0 before the first administration (measurement of prolonged activity) constituted the baseline pain threshold—A. Next, measurements of the withdrawal threshold to mechanical stimuli were performed at 5, 15, 30, 60, 90, 120, 180, 240, 300 min after drug administration (measurements of acute activity) or every day before drug administration (measurements of prolonged activity)—B.
In all experimental sessions (i.e. every day, each drug investigated) values of thresholds obtained (B) were compared to baseline (A).
Changes in pain threshold were calculated as a percent of baseline value according to the following formula:
[formula] • C—% of analgesia; A—pressure (in g), baseline pain threshold; B—pressure (in g) in consecutive measurements.
Percents of analgesia values calculated as above for individual animals were subsequently used to calculate average values in particular experimental groups and for statistical analysis.
The results are expressed as mean values±standard deviation of the mean (±S.E.M.).

[1] = single administration, 15 mg magnesium ions/kg p.o. with tramadol 125 mg/kg p.o.
[2] = single administration, 15 mg magnesium ions/kg p.o. with codeine 175 mg/kg p.o.
[3] = single administration, 15 mg magnesium ions/kg p.o. with dihydrocodeine 50 mg/kg p.o.
[4] = single administration, 15 mg magnesium ions/kg p.o. with morphine 15 mg/kg p.o.
[5] = single administration, 15 mg magnesium ions/kg p.o. with oxycodone 5 mg/kg p.o.

Compound	effect on analgesic activity of codeine [2]	effect on dihydrocodeine analgesia [3]	effect on morphine analgesia [4]	effect on antinociceptive activity of tramadol [1]	analgesic activity on separate administration (codeine study)	analgesic activity / pain perception threshold on separate administration (dihydrocodeine study)	analgesic activity / pain threshold when administered alone (morphine study)	analgesic activity on separate administration (oxycodone study)	analgesic activity on separate administration (tramadol study)	activity on dihydrocodeine analgesia in comparison (to micronized form / to magnesium lactate) [3]	activity on morphine analgesia in comparison (to micronized magnesium lactate / to micronized form) [4]	further results
[Cl-].[Cl-].[Mg+2] [magnesium chloride, Magnesium chloride]	–	–	–	–	–	–	–	–	–	–	–	enhancement of tramadol analgesia lasted until [1]: 90 min; time at which enhancement of tramadol analgesia appeared [1]: 5 min; time of maximum activity on tramadol analgesia [1]: 15 min
[Cl-].[Cl-].[Mg+2] [micronized magnesium chloride, Magnesium chloride]	significantly enhanced the analgesic activity of codeine	significantly enhanced dihydrocodeine analgesia	significantly enhanced morphine analgesia	increased antynociceptive activity of tramadol	did not exhibit analgesic activity	did not exhibit analgesic activity	Neither morphine nor magnesium lactate and chloride in micronized or normal form administered alone showed analgesic activity	showed no analgesic activity	did not exhibit analgesic activity	–	–	time course of activity on dihydrocodeine analgesia [3]: gradually increased and reached a maximum between min 45 and 90 of the measurements and then became weaker by min 210; effect on oxycodone analgesia [5]: significantly enhanced oxycodone analgesia; time at which activity on oxycodone analgesia appeared [5]: 5 min; time course of activity on oxycodone analgesia [5]: maintained at a constant level up to min 30 of the study, then became weaker in min 45 and disappeared in min 60
Magnesium citrate [normal magnesium citrate]	–	–	–	–	did not exhibit analgesic activity	did not exhibit analgesic activity	did not alter the pain threshold	showed no analgesic activity	did not exhibit analgesic activity	significantly weaker	much weaker	activity on codeine analgesia compared to micronized form [2]: significantly weaker; activity on oxycodone analgesia compared to micronized form [5]: enhanced oxycodone analgesia significantly less when compared to the micronized form
N[C@@H](CC(=O)O)C(=O)O [micronized magnesium hydroaspartate, Magnesium hydroaspartate]	also enhanced codeine analgesia	also enhanced dihydrocodeine analgesia	also enhanced morphine analgesia	also enhanced tramadol analgesia	did not exhibit analgesic activity	did not exhibit analgesic activity	did not alter the pain threshold	showed no analgesic activity	did not exhibit analgesic activity	lasted a shorter time	weaker, although significant	enhancement of morphine analgesia lasted up to [4]: 180 min; activity on tramadol analgesia in comparison (to micronized form / to magnesium chloride) [1]: weaker throughout the study
